Among the test systems are NCI-H226; IGROV-1; NCI-H460; U-251; A549; HOP-92; NCI-H23; OVCAR-5; HCT-15; SW-620; UACC-257; OVCAR-4; SR; MOLT-4.
Holding throughout (assay): growth of human tumour cells (NCI), 48 h

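Five concentrations, 48 hours, 96-well plates. The concentration for 50% growth inhibition is given as GI50.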 Activity calls are given as the source filed them. No stated cut-off is given here; in the data, active = GI50 up to about 1.1 µM and inactive = higher.

Consider `Cc1ccccc1NC(=O)C(=O)CC(=O)C1CCOC1=O` (stereo not drawn), for which the GI50 in the experiment with NCI-H226, in the experiment with IGROV-1, in the experiment with NCI-H460, with U-251, with A549 and with HOP-92 was > 100 µM (inactive) throughout. In addition, the GI50 with NCI-H23 is > 100 µM (inactive); in the experiment on OVCAR-5, > 100 µM (inactive); in the experiment with HCT-15, greater than 100 µM; with SW-620, > 100 µM (inactive); in the experiment with UACC-257, > 100 µM (inactive); in the experiment with OVCAR-4, > 100 µM (inactive).
`Cn1cnc([N+](=O)[O-])c1Sc1n[nH]c(-c2ccc(Cl)cc2)n1`: the GI50 in the experiment on NCI-H226 was 14 µM (inactive); with IGROV-1, 20 µM (inactive); with NCI-H460 it was 20.8 µM (inactive); with U-251, 19.5 µM (inactive); in the experiment with SR it was 13.1 µM (inactive); in the experiment with A549, 25.3 µM (inactive). Moreover, the GI50 in the experiment on HOP-92 is 14.5 µM (inactive); with NCI-H23, 18.6 µM (inactive); with OVCAR-5, 23.4 µM (inactive); with MOLT-4 it was 12.2 µM (inactive); with SW-620 it was 21.7 µM (inactive); in the experiment with UACC-257, 17.1 µM (inactive). Besides, in the experiment with OVCAR-4, the GI50 was 18.3 µM (inactive).
Consider `CCOC(=O)C(=O)CC(=O)C(Br)C(Br)c1ccc(Cl)cc1` (stereo not drawn), for which the GI50 is 42.5 µM (inactive) in the experiment on IGROV-1; > 100 µM (inactive) in the experiment on NCI-H460; > 100 µM (inactive) with A549; 24.6 µM (inactive) in the experiment with HOP-92; 30.5 µM (inactive) in the experiment with NCI-H23; > 100 µM (inactive) with OVCAR-5. For the same molecule, the GI50 is 33.5 µM with HCT-15; 21.7 µM (inactive) with MOLT-4; 39.6 µM (inactive) with SW-620; 29.5 µM (inactive) with UACC-257; 65.9 µM (inactive) in the experiment on OVCAR-4.
With `C[s+]1c2ccccc2c2ccccc21`, the GI50 is 58.5 µM (inactive) with NCI-H226; > 100 µM (inactive) in the experiment on IGROV-1; > 100 µM (inactive) with NCI-H460; > 100 µM (inactive) with U-251; 92.5 µM (inactive) with SR; > 100 µM (inactive) with A549. Further, the GI50 in the experiment on NCI-H23 was > 10 µM (inactive); with OVCAR-5 it was > 100 µM (inactive); with HCT-15, 92 µM; with MOLT-4, > 100 µM (inactive); in the experiment on SW-620, > 100 µM (inactive); with OVCAR-4 it was > 100 µM (inactive).
For the molecule `CC1=C(C(=O)CC(=O)C(=O)Nc2ccc(Cl)cc2C)Sc2ccccc2N1`, the GI50 in the experiment with IGROV-1 was > 100 µM (inactive); with NCI-H460, > 100 µM (inactive); in the experiment with U-251, > 100 µM (inactive); with A549, > 100 µM (inactive); with HOP-92, 22.8 µM (inactive); with NCI-H23 it was > 100 µM (inactive). The GI50 in the experiment on OVCAR-5 is > 100 µM (inactive); in the experiment on HCT-15 it was greater than 100 µM; with MOLT-4 it was > 59.6 µM (inactive); with SW-620 it was > 100 µM (inactive); in the experiment with UACC-257, > 100 µM (inactive); with OVCAR-4, > 100 µM (inactive).
In the case of `N=C(N)NS(=O)(=O)c1ccc(NC(=O)c2cccc3c(Nc4ccc(S(=O)(=O)N=C(N)N)cc4)c4ccccc4nc23)cc1`, the GI50 with IGROV-1 was 70.5 µM (inactive); with NCI-H460, > 100 µM (inactive); with U-251 it was 28.8 µM (inactive); in the experiment with A549, 79.1 µM (inactive); in the experiment with HOP-92, > 100 µM (inactive); in the experiment on NCI-H23 it was 44.3 µM (inactive). The GI50 is > 100 µM (inactive) in the experiment on OVCAR-5; greater than 100 µM in the experiment with HCT-15; 35.7 µM (inactive) in the experiment with MOLT-4; 31.4 µM (inactive) with SW-620; > 100 µM (inactive) in the experiment on UACC-257; 26.6 µM (inactive) in the experiment on OVCAR-4.
With `O=C1c2ccccc2C(=O)N1CC#CCO`, the GI50 in the experiment on NCI-H226, in the experiment with NCI-H460, in the experiment with U-251, in the experiment with SR, in the experiment with A549 and with NCI-H23 was > 100 µM (inactive) in each case. In addition, the GI50 was > 100 µM (inactive) in the experiment with OVCAR-5; greater than 100 µM in the experiment with HCT-15; > 100 µM (inactive) in the experiment with MOLT-4; > 100 µM (inactive) in the experiment on SW-620; > 100 µM (inactive) with UACC-257; > 100 µM (inactive) in the experiment on OVCAR-4.
`CCOC(=O)/C(=C\c1ccc(N(CCC#N)CCC#N)cc1C)NC(=O)/C=C/c1ccccc1`: the GI50 in the experiment on NCI-H226 is 96.2 µM (inactive); in the experiment with IGROV-1 it was > 100 µM (inactive); in the experiment on NCI-H460, > 100 µM (inactive); in the experiment with U-251, > 100 µM (inactive); in the experiment with A549, > 100 µM (inactive); in the experiment with NCI-H23, > 100 µM (inactive). The GI50 in the experiment with OVCAR-5 was > 100 µM (inactive); with HCT-15, greater than 100 µM; with MOLT-4, > 100 µM (inactive); in the experiment with SW-620, > 100 µM (inactive); in the experiment on UACC-257 it was > 100 µM (inactive).
On to `CC(C)(C)/N=C\N(C=C(c1ccccc1)c1ccccc1)C1CCCCC1`, for which the GI50 in the experiment with IGROV-1 is 50.9 µM (inactive); in the experiment on NCI-H460, 38.2 µM (inactive); with U-251, 32.1 µM (inactive); with SR, 18 µM (inactive); with A549 it was 81.3 µM (inactive); with HOP-92 it was 17.9 µM (inactive). For the same molecule, the GI50 in the experiment with NCI-H23 is 40.3 µM (inactive); with OVCAR-5 it was 35.1 µM (inactive); in the experiment on HCT-15, 28.5 µM; in the experiment on SW-620 it was 36.3 µM (inactive); in the experiment on UACC-257, 33.3 µM (inactive); in the experiment on OVCAR-4, 39.4 µM (inactive).
Take `COc1cc(OC)c(Oc2cccc(OC)c2OC)c(OC)c1`: the GI50 in the experiment on NCI-H226, with IGROV-1, in the experiment with NCI-H460, in the experiment with U-251, with SR and in the experiment on A549 was > 100 µM (inactive) in each case. Moreover, the GI50 with HOP-92, in the experiment with NCI-H23, in the experiment on OVCAR-5, in the experiment with MOLT-4, in the experiment on SW-620 and in the experiment on UACC-257 was > 100 µM (inactive) each time. In the experiment with OVCAR-4, the GI50 was > 100 µM (inactive).
In the case of `Cc1cccc(C(C)C)c1NC(=O)C(=O)C(C(=O)c1ccccc1F)C1OC(=O)c2ccccc21` (stereo not drawn), the GI50 in the experiment with NCI-H226 was 3.25 µM (inactive); with IGROV-1, 24.8 µM (inactive); in the experiment with NCI-H460, 24.6 µM (inactive); with U-251, 7.16 µM (inactive); in the experiment with A549, 37.5 µM (inactive); with HOP-92 it was 23.4 µM (inactive). Further, the GI50 with NCI-H23 was 15 µM (inactive); in the experiment on OVCAR-5 it was 40 µM (inactive); in the experiment with HCT-15, 20.5 µM; with MOLT-4, 4.73 µM (inactive); in the experiment on SW-620 it was 24.5 µM (inactive); in the experiment with UACC-257 it was 13 µM (inactive). Moreover, in the experiment on OVCAR-4, the GI50 was 21.8 µM (inactive).
On to `COC(=O)c1nc(NN)cc(O)c1CCCCCc1c(O)nc(NN)nc1C(=O)OC`, for which the GI50 in the experiment on NCI-H226, with IGROV-1, in the experiment with NCI-H460, in the experiment on U-251, in the experiment with A549 and in the experiment with HOP-92 was > 100 µM (inactive) throughout. Moreover, the GI50 in the experiment with NCI-H23 was > 100 µM (inactive); with OVCAR-5, > 100 µM (inactive); with HCT-15 it was greater than 100 µM; in the experiment on MOLT-4, > 100 µM (inactive); in the experiment on SW-620, > 59.3 µM (inactive); in the experiment with UACC-257 it was > 100 µM (inactive). In the experiment on OVCAR-4, the GI50 is > 100 µM (inactive).
For the molecule `CCOC(=O)CC(NC(=O)c1nc[nH]c1/N=N/N(C)C)C(=O)OCC` (stereo not drawn), the GI50 with NCI-H226, in the experiment with IGROV-1, in the experiment with NCI-H460, in the experiment on U-251, with SR and in the experiment with A549 was > 100 µM (inactive) each time. The GI50 with NCI-H23 was > 100 µM (inactive); with OVCAR-5, > 100 µM (inactive); with HCT-15, greater than 100 µM; in the experiment on MOLT-4, > 100 µM (inactive); in the experiment with SW-620 it was > 100 µM (inactive); in the experiment on UACC-257, > 100 µM (inactive). In addition, the GI50 with OVCAR-4 was > 100 µM (inactive).
`CC(C)=CC(=O)CC(=O)C(=O)Nc1ccc(Cl)c(Cl)c1`: the GI50 with NCI-H226, in the experiment with IGROV-1, in the experiment on NCI-H460, in the experiment with U-251, in the experiment on SR and in the experiment on A549 was > 100 µM (inactive) in each case. In addition, the GI50 is > 100 µM (inactive) with NCI-H23; > 100 µM (inactive) with OVCAR-5; greater than 100 µM in the experiment with HCT-15; > 100 µM (inactive) with MOLT-4; > 100 µM (inactive) in the experiment with SW-620; > 100 µM (inactive) in the experiment on UACC-257. Also, the GI50 in the experiment with OVCAR-4 is > 100 µM (inactive).
In the case of `CC[C@H](C)N(CCN)C(=O)c1cc2ccccc2c(-c2ccccc2Cl)n1`, the GI50 in the experiment with NCI-H226 was 15 µM (inactive); in the experiment on IGROV-1 it was 8.09 µM (inactive); with NCI-H460, 14.1 µM (inactive); with U-251, 11.6 µM (inactive); in the experiment on SR, 10.8 µM (inactive); in the experiment with A549, 4.41 µM (inactive). For the same molecule, the GI50 with NCI-H23 is 12.8 µM (inactive); with OVCAR-5 it was 14.7 µM (inactive); in the experiment with HCT-15, 4.42 µM; in the experiment with MOLT-4 it was 7.31 µM (inactive); in the experiment with SW-620 it was 14.9 µM (inactive); in the experiment with UACC-257, 1.91 µM (inactive). In the experiment with OVCAR-4, the GI50 is 14.6 µM (inactive).
As for `O=C(NCCCC/N=c1/cccccc1NCCCCNC(=O)OCc1ccccc1)OCc1ccccc1`, the GI50 in the experiment with NCI-H226 is 16.4 µM (inactive); with IGROV-1, 20.9 µM (inactive); in the experiment on NCI-H460, 11.5 µM (inactive); in the experiment on U-251, 16.1 µM (inactive); in the experiment with A549, 26.5 µM (inactive); with HOP-92, 3.14 µM (inactive). Further, the GI50 was 19.3 µM (inactive) in the experiment with NCI-H23; 17.1 µM (inactive) in the experiment with OVCAR-5; 8.05 µM in the experiment with HCT-15; 15.3 µM (inactive) in the experiment with MOLT-4; 17 µM (inactive) in the experiment on SW-620; 15.2 µM (inactive) in the experiment with UACC-257. In addition, the GI50 in the experiment on OVCAR-4 is 18.9 µM (inactive).
